Measured values: ChEMBL document CHEMBL1127103, “New indole derivatives as potent and selective serotonin uptake inhibitors” (Bioorg Med Chem Lett, 1993)

Assays:
[1] = biological target: Muscarinic acetylcholine receptor; assay: Tested for its binding affinity against muscarinic receptor; showed no appreciable affinity at concentration specified; format: protein assay
D(2) dopamine receptor = D(2) dopamine receptor (Mus musculus, UniProt P61168); assay: Tested for its binding affinity against Dopamine receptor D2; showed no appreciable affinity at concentration specified
Mus musculus [2] = assay: Effective dose required for half maximal potentiation of head twitches observed with 5-HTP after oral administration (1 hr 30 min); format: functional
Mus musculus [3] = assay: Effective dose required for half maximal potentiation of head twitches observed with 5-HTP after subcutaneous administration (1 hr); format: functional; conditions: sc
[4] = biological target: Serotonin transporter (Rattus norvegicus); assay: Compound was evaluated for inhibition of 5-HT uptake by measuring its ability to inhibit [3H]paroxetine binding to rat cortical membranes
[5] = biological target: T1, Alpha-1 adrenergic receptor (Mus musculus, UniProt P97714+P97717+P97718); assay: Tested for its binding affinity against Alpha-1 adrenergic receptor; showed no appreciable affinity at concentration specified; format: protein assay
T1 sequence (P97714 whole entry): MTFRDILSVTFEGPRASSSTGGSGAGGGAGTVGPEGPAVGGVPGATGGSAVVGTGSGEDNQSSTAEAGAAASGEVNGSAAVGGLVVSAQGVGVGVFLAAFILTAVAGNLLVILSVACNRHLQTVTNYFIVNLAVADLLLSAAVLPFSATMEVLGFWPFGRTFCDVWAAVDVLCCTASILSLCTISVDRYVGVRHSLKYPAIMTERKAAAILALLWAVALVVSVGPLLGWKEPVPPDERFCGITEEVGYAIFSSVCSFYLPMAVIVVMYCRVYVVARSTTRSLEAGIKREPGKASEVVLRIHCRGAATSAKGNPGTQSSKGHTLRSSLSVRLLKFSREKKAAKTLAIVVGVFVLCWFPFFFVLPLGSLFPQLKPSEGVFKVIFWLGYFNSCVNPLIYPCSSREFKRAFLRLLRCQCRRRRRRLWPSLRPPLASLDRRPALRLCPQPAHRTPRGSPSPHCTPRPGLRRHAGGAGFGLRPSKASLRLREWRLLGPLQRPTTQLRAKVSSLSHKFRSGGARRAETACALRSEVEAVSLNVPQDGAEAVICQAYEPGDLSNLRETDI
T1 sequence (P97717 whole entry): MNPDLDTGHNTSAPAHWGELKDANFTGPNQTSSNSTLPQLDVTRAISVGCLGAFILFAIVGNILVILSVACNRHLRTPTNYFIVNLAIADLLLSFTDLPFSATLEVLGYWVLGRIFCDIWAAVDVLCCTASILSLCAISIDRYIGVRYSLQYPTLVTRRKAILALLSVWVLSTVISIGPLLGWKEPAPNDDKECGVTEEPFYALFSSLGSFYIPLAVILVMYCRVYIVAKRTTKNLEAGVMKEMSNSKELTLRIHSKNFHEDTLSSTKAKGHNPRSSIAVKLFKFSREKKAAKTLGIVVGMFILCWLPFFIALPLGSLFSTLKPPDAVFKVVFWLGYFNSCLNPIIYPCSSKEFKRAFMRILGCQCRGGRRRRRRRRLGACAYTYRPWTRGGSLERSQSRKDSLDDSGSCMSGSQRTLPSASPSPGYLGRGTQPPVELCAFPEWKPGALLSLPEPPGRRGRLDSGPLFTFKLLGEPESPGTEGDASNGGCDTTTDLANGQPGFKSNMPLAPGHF
T1 sequence (P97718 whole entry): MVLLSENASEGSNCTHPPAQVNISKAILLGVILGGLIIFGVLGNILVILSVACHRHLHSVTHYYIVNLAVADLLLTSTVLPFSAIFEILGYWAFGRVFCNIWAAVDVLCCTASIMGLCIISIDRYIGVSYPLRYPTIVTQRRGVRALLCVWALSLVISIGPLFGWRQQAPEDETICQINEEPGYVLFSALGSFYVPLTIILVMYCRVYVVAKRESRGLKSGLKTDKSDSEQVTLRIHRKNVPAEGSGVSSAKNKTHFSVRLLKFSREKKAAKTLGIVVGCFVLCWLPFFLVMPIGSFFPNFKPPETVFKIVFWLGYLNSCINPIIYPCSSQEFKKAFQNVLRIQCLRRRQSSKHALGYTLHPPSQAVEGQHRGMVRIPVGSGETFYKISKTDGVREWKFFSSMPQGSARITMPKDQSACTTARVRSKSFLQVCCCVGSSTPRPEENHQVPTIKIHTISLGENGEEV

Sequence of D(2) dopamine receptor (P61168 whole entry): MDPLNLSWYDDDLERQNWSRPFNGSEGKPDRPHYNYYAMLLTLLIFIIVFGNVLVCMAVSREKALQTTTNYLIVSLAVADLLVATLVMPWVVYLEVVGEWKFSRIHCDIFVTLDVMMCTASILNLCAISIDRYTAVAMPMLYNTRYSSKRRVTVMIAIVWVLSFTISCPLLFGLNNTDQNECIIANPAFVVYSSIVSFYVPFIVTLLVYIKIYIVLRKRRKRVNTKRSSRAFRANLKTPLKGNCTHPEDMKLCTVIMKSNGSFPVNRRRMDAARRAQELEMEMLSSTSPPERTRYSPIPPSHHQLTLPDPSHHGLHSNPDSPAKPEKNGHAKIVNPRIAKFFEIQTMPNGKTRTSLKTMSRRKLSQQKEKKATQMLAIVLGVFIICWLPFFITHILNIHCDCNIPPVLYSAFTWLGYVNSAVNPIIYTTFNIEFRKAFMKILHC

SMILES	IC50 [1] [µM]	IC50 (D(2) dopamine receptor) [µM]	ED50 (Mus musculus [2]) [mg/kg]	ED50 (Mus musculus [3]) [mg/kg]	IC50 [4] [µM]	IC50 [5] [µM]
O=C1Nc2cccc3cccc(c23)N1CCN1CCC(Cc2c[nH]c3ccc(F)cc23)CC1	> 0.1	> 0.1	2	4	0.0015	> 0.1
CNCCC(Oc1ccc(C(F)(F)F)cc1)c1ccccc1 (stereo not drawn) [FLUOXETINE]				6.3		
O=S1(=O)c2ccccc2CN1CCN1CCC(Cc2c[nH]c3ccc(F)cc23)CC1	> 0.1	> 0.1	7.2	4.5	0.001	> 0.1
CN1c2cccc3cccc(c23)N(CCN2CCC(Cc3c[nH]c4ccc(F)cc34)CC2)S1(=O)=O	> 0.1	> 0.1	> 20		0.0037	> 0.1
Cn1c(=O)c2ccccc2n(CCN2CCC(Cc3c[nH]c4ccc(F)cc34)CC2)c1=O	> 0.1	> 0.1	20		0.0059	> 0.1
O=S1(=O)Nc2cccc3cccc(c23)N1CCN1CCC(Cc2c[nH]c3ccc(F)cc23)CC1	> 0.1	> 0.1			0.012	> 0.1
O=C1CN(CCN2CCC(Cc3c[nH]c4ccc(F)cc34)CC2)S(=O)(=O)c2ccccc21	> 0.1	> 0.1	> 20			> 0.1
O=C1c2cccc3cccc(c23)C(=O)N1CCN1CCC(Cc2c[nH]c3ccc(F)cc23)CC1	> 0.1	> 0.1	2.3	6.1		> 0.1
O=C1N(CCN2CCC(Cc3c[nH]c4ccc(F)cc34)CC2)c2ccccc2C12CC2	> 0.1	> 0.1	> 20		0.004	> 0.1
CN(CCN1CCC(Cc2c[nH]c3ccc(F)cc23)CC1)S(=O)(=O)c1ccccc1	> 0.1	> 0.1			0.03	> 0.1
C[Si]1(C)CN(CCN2CCC(Cc3c[nH]c4ccc(F)cc34)CC2)S(=O)(=O)c2ccccc21	> 0.1	> 0.1				> 0.1
CC1(C)CN(CCN2CCC(Cc3c[nH]c4ccc(F)cc34)CC2)C(=O)c2ccccc21	> 0.1	> 0.1	20		0.0038	> 0.1
COC1=Nc2cccc3cccc(c23)N1CCN1CCC(Cc2c[nH]c3ccc(F)cc23)CC1	> 0.1	> 0.1			0.0226	> 0.1
O=C1Cc2ccccc2N1CCN1CCC(Cc2c[nH]c3ccc(F)cc23)CC1	> 0.1	> 0.1			0.0031	> 0.1
O=c1[nH]c2ccccc2c(=O)n1CCN1CCC(Cc2c[nH]c3ccc(F)cc23)CC1	> 0.1	> 0.1	20		0.0005	> 0.1
C[Si]1(C)CN(CCN2CCC(Cc3c[nH]c4ccc(F)cc34)CC2)C(=O)c2ccccc21	> 0.1	> 0.1	> 20		0.0026	> 0.1
O=S(=O)(NCCN1CCC(Cc2c[nH]c3ccc(F)cc23)CC1)c1ccccc1	> 0.1	> 0.1	> 20		0.006	> 0.1
O=C1CSc2ccccc2N1CCN1CCC(Cc2c[nH]c3ccc(F)cc23)CC1	> 0.1	> 0.1	> 20		0.0011	> 0.1
O=S1(=O)N(CCN2CCC(Cc3c[nH]c4ccc(F)cc34)CC2)c2cccc3c2N1CCC3 [RP-68303]				5.1	0.0012	
O=C1Nc2ccccc2S(=O)(=O)N1CCN1CCC(Cc2c[nH]c3ccc(F)cc23)CC1	> 0.1	> 0.1	> 20		0.0021	> 0.1
